Where a SMILES comes first, the peptide text is derived from it. [ ]: non-standard residue; d: D form. The star is where a group is joined. Nle = CCCC[C@H](N)C(=O)O; Nva = CCC[C@H](N)C(=O)O; Cbz = O=C(OCc1ccccc1)*
How the values were obtained:
cathepsin L = cathepsin L (Homo sapiens, UniProt P07711); conditions: cited from earlier work
calpain I = molecular target: T1, calpain I (Homo sapiens, UniProt P07384); conditions: cited from earlier work
T1 sequence (P07384 1-714): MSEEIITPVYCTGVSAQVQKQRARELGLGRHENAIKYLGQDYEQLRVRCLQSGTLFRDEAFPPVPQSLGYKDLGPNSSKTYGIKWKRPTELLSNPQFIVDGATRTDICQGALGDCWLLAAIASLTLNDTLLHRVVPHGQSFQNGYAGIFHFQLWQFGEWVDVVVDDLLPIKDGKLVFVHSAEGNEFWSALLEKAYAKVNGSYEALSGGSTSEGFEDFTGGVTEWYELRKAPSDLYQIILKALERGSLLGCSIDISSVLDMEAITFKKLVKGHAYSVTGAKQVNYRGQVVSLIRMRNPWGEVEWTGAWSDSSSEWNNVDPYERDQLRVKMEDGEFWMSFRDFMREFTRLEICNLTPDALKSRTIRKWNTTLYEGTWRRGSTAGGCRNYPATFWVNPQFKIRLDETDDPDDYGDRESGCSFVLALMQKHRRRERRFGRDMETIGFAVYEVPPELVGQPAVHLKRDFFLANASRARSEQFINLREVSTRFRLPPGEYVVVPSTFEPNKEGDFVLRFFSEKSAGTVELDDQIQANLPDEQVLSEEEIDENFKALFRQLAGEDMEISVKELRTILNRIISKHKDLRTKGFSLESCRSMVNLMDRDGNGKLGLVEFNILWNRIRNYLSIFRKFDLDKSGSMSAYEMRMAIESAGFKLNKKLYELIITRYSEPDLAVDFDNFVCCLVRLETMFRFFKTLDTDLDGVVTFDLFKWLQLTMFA
T1 sequence (P04632 1-268 partner): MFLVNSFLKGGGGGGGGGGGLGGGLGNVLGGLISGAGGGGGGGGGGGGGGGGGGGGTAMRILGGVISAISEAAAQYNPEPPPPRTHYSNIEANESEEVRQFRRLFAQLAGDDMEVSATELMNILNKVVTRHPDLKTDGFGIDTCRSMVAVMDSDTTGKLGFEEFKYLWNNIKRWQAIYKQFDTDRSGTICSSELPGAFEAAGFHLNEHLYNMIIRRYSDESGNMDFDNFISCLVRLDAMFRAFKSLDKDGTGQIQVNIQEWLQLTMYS

dengue virus TSV01 = assay: Plaque assay of supernatants of HepG2 cells infected with dengue virus TSV01 in the presence of ubiquitin-proteasome inhibitors; type: cell-based, dengue virus serotype 2; conditions: for virus replication in the HepG2 cell line by plaque assay of the cell culture supernatants: FIG. 4A, two days after infection, MG-132 0.4 and 0.6 μM, ALLN 10 and 15 μM, MOI 10, vs DMSO alone; for virus replication in the HepG2 cell line by plaque assay of the cell culture supernatants / virus replication by plaque assay: 2 hrs prior to infection; for virus replication by plaque assay: FIG. 7G, HepG2, MG-132 0.04 and 0.4 μM, ALLN 1 and 10 μM, MOI 10, 48 hrs
Protocol: The HepG2 cell line is infected with TSV01, a serotype 2 dengue virus (Genbank AY037116; McBride and Vasudevan, 1995), and cells harvested over a succession of time points up to three days post-infection.
In a second experiment we applied specific compounds to our in vitro experiment (described above) that are known to alter the function of these (and other) genes in this pathway (Table E1 below).
HepG2 cells (ATCC) are treated with proteasome inhibitors prior to infection with dengue virus. […]
HepG2 cells are cultured ON in 24 well plates. […]
Cell culture supernatants are collected and assayed for dengue virus by plaque assay. Plaque forming units per ml are expressed as the mean percentage of the highest number of pfu/ml (DMSO alone)±SEM, (n=3). Cytotoxicity is measured using FDA and results are expressed as the mean percentage compared to DMSO alone±SEM, (n=3). “*” indicates p<0.05 and “**”indicates p<0.005 by students t-test comparing each treatment to DMSO alone.
The type 2 dengue virus strain TSV01 is obtained from an outbreak in Townsville, Australia (McBride and Vasudevan 1995) (GenBank, accession number AY037116). TSV01 is cultured in the C6/36 cell line (from the Aedes albopictus mosquito) with virus added to cells in a T175 flask (MOI 0.01) and incubated for 1 hr at 28° C. with brief mixing every 20 min. Media is removed and cells washed in fresh media then media with 5% FBS added and cells incubated for 5 days at 28° C. Cell culture supernatants are removed and centrifuged at 1000×g for 10 min at 4° C. then pooled and stored in aliquots at −80° C. Heat-inactivated virus is prepared by incubating virus samples at 55° C. for 1 hr, with heat-inactivation confirmed by plaque assay.
For plaque assay, BHK-21 cells are cultured ON in 24 well plates before media is removed and serial dilutions (10-fold) of cell culture supernatants added to individual wells. Plates are incubated for 1 hr before media is aspirated and replaced with 0.5 ml of 0.8% methyl-cellulose medium (with 2% FBS). Plates are then incubated for 5 days before the media is removed and cells fixed in 4% formaldehyde for 20 min then rinsed in water and stained with crystal violent for 20 min and rinsed again. Plaques are counted manually and concentrations of plaque forming units per ml (pfu/ml) of the sample cell culture supernatant calculated.

calpain II = molecular target: T2, calpain II (Homo sapiens, UniProt P17655); conditions: cited from earlier work
T2 sequence (P17655 1-700): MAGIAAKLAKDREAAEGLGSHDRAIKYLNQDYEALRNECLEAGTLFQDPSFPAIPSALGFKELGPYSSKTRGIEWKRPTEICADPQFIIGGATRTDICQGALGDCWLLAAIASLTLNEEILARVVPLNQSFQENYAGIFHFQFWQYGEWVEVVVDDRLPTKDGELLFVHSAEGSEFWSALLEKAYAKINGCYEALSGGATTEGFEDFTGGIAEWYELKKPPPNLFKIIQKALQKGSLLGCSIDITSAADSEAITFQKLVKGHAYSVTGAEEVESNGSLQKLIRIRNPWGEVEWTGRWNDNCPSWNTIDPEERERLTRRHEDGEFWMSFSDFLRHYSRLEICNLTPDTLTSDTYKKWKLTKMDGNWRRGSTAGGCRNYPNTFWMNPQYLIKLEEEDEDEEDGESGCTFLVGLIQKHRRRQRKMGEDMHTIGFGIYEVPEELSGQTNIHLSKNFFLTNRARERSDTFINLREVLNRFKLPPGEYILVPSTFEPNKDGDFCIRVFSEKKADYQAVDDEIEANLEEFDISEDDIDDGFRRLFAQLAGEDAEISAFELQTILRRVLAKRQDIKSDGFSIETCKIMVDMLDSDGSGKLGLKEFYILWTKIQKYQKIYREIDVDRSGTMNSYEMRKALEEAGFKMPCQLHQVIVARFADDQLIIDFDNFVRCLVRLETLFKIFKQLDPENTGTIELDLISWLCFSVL
T2 sequence (P04632 1-268 partner): T1 sequence (P04632 1-268 partner)

proteasome = conditions: cited from earlier work
[1] = molecular target: calpain I, calpain II, cathepsin B, and cathepsin L; conditions: one range for the four enzymes; cited from earlier work
26S complex = conditions: cited from earlier work
NF-kB activation = conditions: cited from earlier work
[2] = molecular target: chymotrypsin-like activity (Homo sapiens, UniProt P28074); conditions: cited from earlier work
20S proteasome = conditions: cited from earlier work
26S proteasome = conditions: cited from earlier work

Sequence of cathepsin L (P07711 114-333, species assumed): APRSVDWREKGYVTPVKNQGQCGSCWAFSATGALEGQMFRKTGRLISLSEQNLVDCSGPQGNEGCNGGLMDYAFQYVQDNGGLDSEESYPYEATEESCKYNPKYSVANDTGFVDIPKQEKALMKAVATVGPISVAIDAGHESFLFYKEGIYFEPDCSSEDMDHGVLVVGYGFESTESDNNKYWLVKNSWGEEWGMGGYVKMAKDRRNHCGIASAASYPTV

SMILES: CCCC[C@@H](C=O)NC(=O)[C@H](CC(C)C)NC(=O)[C@H](CC(C)C)NC(C)=O [ALLN, N-Acetyl-Leu-Leu-Nle-CHO] (Ac-Leu-Leu-[Nle]-aldehyde)
- Ki (cathepsin L): 0.5 nM
- Ki (calpain I): 190 nM
- virus replication in the HepG2 cell line by plaque assay of the cell culture supernatants (dengue virus TSV01): significantly reduced
- virus replication by plaque assay (dengue virus TSV01): significantly and consistently reduced
- Ki (calpain II): 220 nM
- Ki (proteasome): 6000 nM
- Ki [1]: 150 to 500 nM

SMILES: CC(C)C[C@@H](C=O)NC(=O)[C@H](CC(C)C)NC(=O)[C@H](CC(C)C)NC(=O)OCc1ccccc1 [MG-132, Carbobenzoxy-L-leucyl-L-leucyl-L-leucinal] (Cbz-Leu-Leu-Leu-aldehyde)
- effective concentrations, reduction of degradation of ubiquitin-conjugated proteins (26S complex): micromolar concentrations. Sequence: Z-Leu-
- virus replication in the HepG2 cell line by plaque assay of the cell culture supernatants (dengue virus TSV01): significantly reduced
- virus replication by plaque assay (dengue virus TSV01): significantly and consistently reduced
- IC50 (NF-kB activation): 3000 nM
- Ki (proteasome): 4 nM

SMILES: CC(C)C[C@H](NC(=O)OCc1ccccc1)C(=O)N[C@@H](CC(C)C)C(=O)N[C@H](C=O)Cc1ccccc1 [Proteasome Inhibitor II, Z-Leu-Leu-Phenylalaninal] (Cbz-Leu-Leu-Phe-aldehyde)
- Ki [2]: 460 nM

SMILES: CC(C)[C@H](O)[C@@]12NC(=O)[C@H](C)[C@@H]1OC2=O [clasto-Lactacystin β-Lactone]
- sensitivity relative to its precursor, lactacystin (20S proteasome; in vitro): ~10-fold more sensitive than its precursor,

SMILES: CCC[C@@H](C=O)NC(=O)[C@H](CC(C)C)NC(=O)[C@H](CC(C)C)NC(=O)OCc1ccccc1 [MG-115, Z-Leu-Leu-Norvalinal] (Cbz-Leu-Leu-[Nva]-aldehyde)
- Ki (26S proteasome): 35 nM
- Ki (20S proteasome): 21 nM

SMILES: CSCC[C@@H](C=O)NC(=O)[C@H](CC(C)C)NC(=O)[C@H](CC(C)C)NC(C)=O [Calpain Inhibitor II, Ac-Leu-Leu-Methional] (Ac-Leu-Leu-Met-aldehyde)
- inhibition of proteasome activity (proteasome): does not
- Ki [1]: 120 to 600 nM

SMILES: C[C@@H]1C[C@H]2[C@@H]3CCC4=CC(=O)C=C[C@]4(C)[C@@]3(F)[C@@H](O)C[C@]2(C)[C@@]1(O)C(=O)CO [Dexamethasone, dexamethasone]
- effect on viral replication (dengue virus TSV01; HepG2 infection model, data not shown): no effect

Source: patent US20100068147A1, “DENGUE DIAGNOSIS AND TREATMENT” (Agency for Science , Technology and Research, priority 2006, published 2010)
